From patent publication US20130072519A1, “2-PHENYL BENZOYLAMIDES” (priority 2010, published 2013)

Columns and labels:
[1] = Human liver microsomal stability; assay type: in vitro ADME; details: Human Liver Microsomes 0.76 mg/mL, 1 μM compound, 37° C.; for Compound remaining (%) at 4 min: pH 7.4, 4 min; for Compound remaining (%) at 30 min: pH 7.4, 30 min
Procedure: (§1) Pooled human liver or intestinal microsomes (final concentration 0.76 mg/mL) were diluted in 100 mM potassium phosphate buffer (pH 7.4) and preincubated at 37° C. The compounds of interest were dissolved in DMSO (30 mM), diluted to 100 μM in acetonitrile or methanol, and added to the microsomal incubations to achieve a final concentration of 1 μM with 1% or less final organic solvent. The mixtures were incubated for 30 min at 37° C. Aliquots were removed at predetermined times and quenched with an excess acetonitrile, containing an internal standard, on ice. Following centrifugation, the analytes were quantified by liquid chromatography-tandem mass spectrometry (LC-MS/MS). The compound remaining (%) was calculated from the analyte area ratio at the predetermined time/initial analyte area ratio at time 0×100.

[2] = system: Apolipoprotein B Secretion from HepG2 Cells; experiment: Inhibition of Apolipoprotein B secretion from HepG2 cells (ELISA); assay type: cell-based, human; details: 22-24 hours incubation, ApoB ELISA, Low/High IC50 columns give the 95% confidence interval
Procedure: Inhibition of Apolipoprotein B Secretion from HepG2 Cells
To assess the inhibitory effect of the compounds of the invention on ApoB production, an endogenously ApoB producing cell line, HEPG2, was implemented in an in vitro ELISA assay. HEPG2 cells are plated at 25,000 per well (96-well plates) in media consisting of DMEM Low Glucose, 1% NEAA (non-essential amino acids), 10% FBS (heat inactivated), 1% L-Glutamine, and 1% Antimycotic-Antibiotic and incubated for 16-18 hours at 37° C. and 5% CO2. After the 16-18 hour incubation, a 12 point half-log serial of the inhibitor (1000 nM-0.003 nM) is prepared, and 1.5 ul of the serial dilution is added to HEPG2 cells, which have had their media decanted and replaced with 148 ul of fresh media, and the cells are incubated for 22-24 hours at 37° C. and 5% CO2. Two and a half hours before the 22-24 hour incubation period is completed, Nunc Maxisorp plates are coated with 100 ul of primary (coating) antibody (goat anti-apoB), diluting to a ratio of 1:1000 in 1% Carbonate-Bicarbonate Coating Buffer and incubated for at least 2 hours at room temperature before the primary antibody is decanted and the wells of the microplate are washed with 200 ul of washing buffer (1% PBS, 0.05% Tween20). Next, 200 ul of blocking buffer (1% PBS, 1:500 Western Block, 5 mg/ml BSA) is added to the wells of the microplate, and incubated for at least 30 mins. Following the 22-24 hours incubation period, cell plates are removed from the incubator, 20 ul of supernatant from each well is aspirated, added to a corresponding well in 96 well plate containing 140 ul of diluent (1:2-Blocking Buffer: Washing Buffer), and mixed. Then, 120 ul is aspirated from the dilutent-supernatant plate, added to the blocked Nunc Maxisorp 96 well plate, and placed at room temperature on a shaker to mix for at least 2 hours. The secondary (capture) antibody (mouse anti-human apoB) is prepared at a ratio of 1:4000, and the detection antibody (goat anti-mouse HRP conjugated antibody) at a ratio of 1:10,000. For each antibody, 100 ul is added to each well of the microplate and the microplate is incubated at room temperature for 2 hours, washing the microplates between each antibody addition. Colorimetric development is achieved by adding 50 ul of TMB reagent to each well, incubating for 5 mins at room temperature, then adding 50 ul of 2M Sulfuric Acid to each well. Absorbance at 450 nm is monitored in an Envision plate reader to measure the amount of ApoB formed.
Results reported as average IC50, low and high IC50 range (95% confidence interval).

[3] = Human intestinal microsomal stability; assay type: in vitro ADME; details: Human Intestinal Microsomes 0.76 mg/mL, 1 μM compound, 37° C.; for Compound remaining (%) at 4 min: pH 7.4, 4 min; for Compound remaining (%) at 30 min: pH 7.4, 30 min
Procedure: as §1

[4] = Homo sapiens, HepG2, HepG2 cells

For CCOC(=O)[C@]1(COC(=O)Cc2ccc(NC(=O)c3cccc(C)c3-c3ccc(C(F)(F)F)cc3)c(C(=O)N(C)C)c2)c2ccccc2C(=O)N1C [Example 49, Ethyl (1R)-1-({2-[3-(Dimethylcarbamoyl)-4-({[6-methyl-4′-(trifluoromethyl)biphenyl-2-yl]carbonyl}amino)phenyl]acetoxy}methyl)-2-methyl-3-oxoisoindoline-1-carboxylate], the “Compound remaining (%) at 4 min” value [1] was 42%, the “Compound remaining (%) at 30 min” value [1] was 2.7% and the IC50 [2, 4] was 0.242 nM. The “Compound remaining (%) at 4 min” value [3] was 100% and the “Compound remaining (%) at 30 min” value [3] was 83%.

For CCOC(=O)C1(COC(=O)Cc2ccc(NC(=O)c3ccc(C)cc3-c3ccc(C(F)(F)F)cc3)c(C(=O)N(C)C)c2)c2ccccc2C(=O)N1C (single isomer, unassigned) [Example 56, ethyl 1-({2-[3-(dimethylcarbamoyl)-4-({[5-methyl-4′-(trifluoromethyl)biphenyl-2-yl]carbonyl}amino)phenyl]acetoxy}methyl)-2-methyl-3-oxoisoindoline-1-carboxylate], the “Compound remaining (%) at 4 min” value [1] was 38%, the “Compound remaining (%) at 30 min” value [1] was 3% and the IC50 [2, 4] was 0.147 nM. The “Compound remaining (%) at 4 min” value [3] was 100% and the “Compound remaining (%) at 30 min” value [3] was 87%.

With CCOC(=O)[C@]1(COC(=O)Cc2ccc(NC(=O)c3ccc(OC)cc3-c3ccc(C(F)(F)F)cc3)c(C(=O)N(C)C)c2)c2ccccc2C(=O)N1C [Example 70, ethyl (1R)-1-({2-[3-(dimethylcarbamoyl)-4-({[5-methoxy-4′-(trifluoromethyl)biphenyl-2-yl]carbonyl}amino)phenyl]acetoxy}methyl)-2-methyl-3-oxoisoindoline-1-carboxylate] the “Compound remaining (%) at 4 min” value [1] was 61%, the “Compound remaining (%) at 30 min” value [1] was 6.4% and the IC50 [2, 4] was 0.414 nM. For the same compound, the “Compound remaining (%) at 4 min” value [3] was 98% and the “Compound remaining (%) at 30 min” value [3] was 96%.

With CCOC(=O)[C@]1(COC(=O)Cc2ccc(NC(=O)c3ccc(C)cc3-c3ccc(OC(C)C)cc3)c(C(=O)N(C)C)c2)c2ccccc2C(=O)N1C [Example 72, ethyl (1R)-1-({2-[3-(dimethylcarbamoyl)-4-{[(4′-isopropoxy-5-methylbiphenyl-2-yl)carbonyl]amino}phenyl]acetoxy}methyl)-2-methyl-3-oxoisoindoline-1-carboxylate] the “Compound remaining (%) at 4 min” value [1] was 71%, the “Compound remaining (%) at 30 min” value [1] was 9.2% and the IC50 [2, 4] was 0.119 nM. The “Compound remaining (%) at 4 min” value [3] was 125% and the “Compound remaining (%) at 30 min” value [3] was 100%.

With CCOC(=O)C1(COC(=O)Cc2ccc(NC(=O)c3ccccc3-c3ccc(OC(C)C)cc3)c(C(=O)N(C)C)c2)CCc2cccnc21 (single isomer, unassigned) [Example 60, ethyl 7-({2-[3-(dimethylcarbamoyl)-4-({[4′-isopropoxybiphenyl-2-yl)carbonyl]amino}phenyl]acetoxy}methyl)-6,7-dihydro-5H-cyclopenta[b]pyridine-7-carboxylate] the “Compound remaining (%) at 4 min” value [1] was 110%, the “Compound remaining (%) at 30 min” value [1] was 8.5% and the IC50 [2, 4] was 0.535 nM. For the same compound, the “Compound remaining (%) at 4 min” value [3] was 107% and the “Compound remaining (%) at 30 min” value [3] was 100%.

With CCOC(=O)C1(COC(=O)Cc2ccc(NC(=O)c3cccc(OC)c3-c3ccc(C(F)(F)F)cc3)c(C(=O)N(C)C)c2)CCc2cccnc21 (single isomer, unassigned) [Example 61, ethyl 7-({2-[3-(dimethylcarbamoyl)-4-({[6-methoxy-4′-(trifluoromethyl)biphenyl-2-yl]carbonyl}amino)phenyl]acetoxy}methyl)-6,7-dihydro-5H-cyclopenta[b]pyridine-7-carboxylate] the “Compound remaining (%) at 4 min” value [1] was 65%, the “Compound remaining (%) at 30 min” value [1] was 4.7% and the IC50 [2, 4] was 0.395 nM. The “Compound remaining (%) at 4 min” value [3] was 106% and the “Compound remaining (%) at 30 min” value [3] was 106%.

With CCOC(=O)C1(COC(=O)Cc2ccc(NC(=O)c3ccc(C)cc3-c3ccc(C(F)(F)F)cc3)c(C(=O)N(C)C)c2)CCc2cccnc21 (single isomer, unassigned) [Example 59, ethyl 7-({2-[3-(dimethylcarbamoyl)-4-({[5-methyl-4′-(trifluoromethyl)biphenyl-2-yl]carbonyl}amino)phenyl]acetoxy}methyl)-6,7-dihydro-5H-cyclopenta[b]pyridine-7-carboxylate] the “Compound remaining (%) at 4 min” value [1] was 22%, the “Compound remaining (%) at 30 min” value [1] was 1.1% and the IC50 [2, 4] was 0.712 nM. For the same compound, the “Compound remaining (%) at 4 min” value [3] was 102%.

For CCOC(=O)[C@]1(COC(=O)Cc2ccc(NC(=O)c3cccc(OC)c3-c3ccc(C(F)(F)F)cc3)c(C(=O)N(C)C)c2)c2ccccc2C(=O)N1C [Example 71, ethyl (1R)-1-({2-[3-(dimethylcarbamoyl)-4-({[6-methoxy-4′-(trifluoromethyl)biphenyl-2-yl]carbonyl}amino)phenyl]acetoxy}methyl)-2-methyl-3-oxoisoindoline-1-carboxylate], the “Compound remaining (%) at 4 min” value [1] was 45%, the “Compound remaining (%) at 30 min” value [1] was 5.3% and the IC50 [2, 4] was 0.176 nM. The “Compound remaining (%) at 4 min” value [3] was 125% and the “Compound remaining (%) at 30 min” value [3] was 94%.

CCOC(=O)[C@]1(COC(=O)Cc2ccc(NC(=O)c3ccccc3-c3ccccc3)c(C(=O)N(C)C)c2)c2ccccc2C(=O)N1C [Example 74, ethyl (1R)-1-[(2-{4-[(biphenyl-2-ylcarbonyl)amino]-3-(dimethylcarbamoyl)phenyl}acetoxy)methyl]-2-methyl-3-oxoisoindoline-1-carboxylate] gave an IC50 [2, 4] of 1.28 nM.

Compound CCOC(=O)C1(COC(=O)Cc2ccc(NC(=O)c3ccccc3-c3ccc(C(F)(F)F)cc3)c(C(=O)N(C)C)c2)CCc2ccccc21 (stereo not drawn) [Example 36] has an IC50 ([2]; HepG2 cells) of 4.6 nM.

With CCOC(=O)[C@]1(COC(=O)Cc2ccc(NC(=O)c3ccccc3-c3ccc(OC(C)C)cc3)c(C(=O)N(C)C)c2)c2ccccc2C(=O)N1C [Example 77, Ethyl (1R)-1-({2-[3-(dimethylcarbamoyl)-4-{[(4′-isopropoxybiphenyl-2-yl)carbonyl]amino}phenyl]acetoxy}methyl)-2-methyl-3-oxoisoindoline-1-carboxylate] the IC50 ([2]; HepG2 cells) was 0.119 nM.

CCOC(=O)C1(COC(=O)Cc2ccc(NC(=O)c3cccc(C)c3-c3ccc(C(F)(F)F)cc3)c(C(=O)N(C)C)c2)c2ccccc2C(=O)N1C (stereo not drawn) [Example 7] gave an IC50 [2, 4] of 15.6 nM.

Compound CCOC(=O)[C@]1(COC(=O)Cc2ccc(NC(=O)c3cccc(OC)c3-c3ccccc3)c(C(=O)N(C)C)c2)c2ccccc2C(=O)N1C [Example 64, ethyl (1R)-1-({2-[3-(dimethylcarbamoyl)-4-{[(6-methoxybiphenyl-2-yl)carbonyl]amino}phenyl]acetoxy}methyl)-2-methyl-3-oxoisoindoline-1-carboxylate] has an IC50 [2, 4] of 0.536 nM.

With CCOC(=O)C1(COC(=O)Cc2ccc(NC(=O)c3cccc(C)c3-c3ccc(OC(C)C)cc3)c(C(=O)N(C)C)c2)c2ccccc2C(=O)N1C (stereo not drawn) [Example 51, ethyl 1-({2-[3-(dimethylcarbamoyl)-4-{[(4′-isopropoxy-6-methylbiphenyl-2-yl)carbonyl]amino}phenyl]acetoxy}methyl)-2-methyl-3-oxoisoindoline-1-carboxylate] the IC50 [2, 4] was 0.159 nM.
